{"source": "patent US20250367329A1", "about": "“GENE THERAPY FOR TREATING MITOCHONDRIAL STRESS” (YISSUM RESEARCH DEVELOPMENT COMPANY OF THE HEBREW …, priority 2023, published 2025)", "test_system": "E6/E7LOW human hepatocytes", "experiment": "Puromycin toxicity curves, LIVE/DEAD assay", "type": "cell-based", "conditions": "653 (female) genotype", "procedure": "E6/E7LOW human hepatocytes puromycin toxicity curves: Puromycin (13884, Cayman chemical) was two-fold serially diluted from 10 μg/ml to 0.3 μg/ml in proliferation medium and applied to E6/E7LOW human hepatocytes growing in 96-well plate format. The cells were monitored and imaged daily and on the 3rd day post exposure were analyzed with a LIVE/DEAD assay (L3224, ThermoFischer). The puromycin concentration killing practically all cells in ˜3 days was defined as 2.5 μg/ml for the 653 (female) genotype and 5 µg/ml for the 422 (male) genotype cells."}
{"smiles": "COc1ccc(C[C@H](N)C(=O)N[C@H]2[C@@H](O)[C@H](n3cnc4c(N(C)C)ncnc43)O[C@@H]2CO)cc1", "note": "[Puromycin]", "values": [{"measurement": "puromycin concentration killing practically all cells in ˜3 days", "value": 2.5, "unit": "µg/mL"}]}
